Source: patent US5427942A (State of Oregon, Acting by and Through the Oregon State …, priority 1991, dated 1995)

Experiments:
COS-7 cells = conditions: previously shown (Zhou et al., 1990); cited from earlier work
[1] = test system: D5 pseudogenes D5.psi.1 (HGRI-6) and D5.psi.2 (HGRI-8); test: [3H]SCH23390 binding to membranes of cells transfected with putative pseudogenes; parameters: species or system human; conditions: each of the two putative pseudogenes

SMILES | ability to bind SCH23390 (COS-7 cells) | binding to pseudogene-transfected membranes [1]
CN1CCc2cc(Cl)c(O)cc2[C@@H](c2ccccc2)C1 [SCH23390] | lack the ability to bind | 
CN1CCc2cc(Cl)c(O)cc2[C@@H](c2ccccc2)C1 [[^3 H]SCH23390] |  | failed to bind
